Assay results as given in US4704229A, “Surface-active compounds of the sulfobetaines family, their manufacture and use, particularly for enhanced oil recovery” (Institut Francais du Petrole, priority 1984, dated 1987).

Columns and labels:
Assay type in all cases: physicochemical
[1] = Solubility in water at 20° C.
Description: Solubility in water at 20° C. of the sulfobetaines of examples 2, 3, 5 and 7 (Table I).

[2] = Measurement of the critical micellar concentration (CMC) by surface tension (tensiometer, water/SA-ambient air interface); details: permuted water; for CMC: room temperature of 20° C.; for Surface tension: water/SA-ambient air interface, 20° C., Table II beside CMC
Description: Measurement of the critical micellar concentration (CMC) of the sulfobetaines of examples 2, 3, 5, and 7.
Preparation of solutions for the measurements of CMC values.
The method is a standard method using solutions of initial surfactant (SA) concentration of 0.5 g/l, in freshly permuted water, at room temperature of 20° C. The SA-water mixture is stirred up to complete dissolution and then a series of titrated solutions are obtained by successive dilution, by withdrawing a determined volume of mother-solution, brought each time to a standard volume i.e. 1 ml+39 ml; 2 ml+38 ml; 3 ml+37 ml; . . . The various solutions are stirred for 30 minutes and maintained at rest for 2 hours. The surface tensions are measured by means of a tensiometer Tensiomat n^3 Prolabo whose operating principle consists of measuring the pullout load of a stirrup piece placed at the water/SA-ambient air interface, expressed in millinewton/meter.
The CMC value corresponds to the inflection point of the obtained two straight lines.

[3] = Micro-emulsion test: determination of optimum solubility and optimum salt content parameters; details: pentanol as cosurfactant, dodecane as oil; brine NaCl/CaCl2 9/1
Text: Micro-emulsion test: Determination of optimum solubility and optimum salt content parameters.
The surface-active properties have been determined by analysis of the behaviour of sulfobetaines in a mixture defined according to standard conditions:
brine (NaCl, CaCl2 with (NaCl/CaCl2)=(9/1): 4.5 g
Depending on the salt content of the brine (0-200 g/l), three mono-, di- or triphasic systems can be observed when the product has surface-active properties:
(1) the behavior referred to as Windsor I, wherein an equilibrium is observed between oil phase and με phase*.
(2) a behavior referred to as Windsor II, wherein an equilibrium is observed between με phase and aqueous phase.
(3) and, finally, a so-called Windsor III systems, wherein the intermediary με phase is in equilibrium with a supernatant oil phase and an aqueous phase.
The latter system has the pecularity of very low interfacial tensions. […] The optimum solubility and optimum salinity parameters, corresponding to equal amounts of water and oil in the micro-emulsion, are defined in this system.
By way of example, for sulfobetaine: [drawing 25] the following parameters have been obtained with pentanol as cosurfactant and dodecane as oil: […]

Structure (SMILES)	solubility [1]	CMC [2]	Surface tension [2]	optimum salinity parameter [3]	optimum solubility parameter [3]
CCCCCCCCCCCCCCCCCC[N+](C)(C)CCN(CCCS(=O)(=O)[O-])C(C)=O [Example 3, 4-acetyl-4-aza-6 (N,N-dimethyl stearylammonium) hexane sulfonate]	80 mg/mL	0.01 g/L	35 mN/m	–	–
CCCCCCCCCCCCCCCCCC[N+](C)(C)CCN(CCCS(=O)(=O)[O-])C(C)=O [drawing 25]	–	–	–	30 g/L	55%
CCCCCCCCCCCC[N+](C)(C)CCCN(CCCS(=O)(=O)[O-])C(C)=O [Example 5, 4-acetyl-4-aza-7 (N,N-dimethyl laurylammonium)heptane sulfonate]	300 mg/mL	0.15 g/L	49 mN/m	–	–
CCCCCCCCCCCC[N+](C)(C)CCN(CCCS(=O)(=O)[O-])C(C)=O [Example 2, 4-acetyl-4-aza-6(N,N-dimethyl-laurylammonium)hexane sulfonate]	300 mg/mL	0.04 g/L	54 mN/m	–	–
CCCCCCCCCCCCCCCCCC[N+](C)(C)CCCN(CCCCS(=O)(=O)[O-])C(C)=O [Example 7, 5-acetyl-5-aza-8 (N,N-dimethylstearylammonium)octane sulfonate]	4 mg/mL	0.0028 g/L	39 mN/m	–	–
